Test system: P. falciparum 3D7 growth, pLDH absorbance
Assay: blood-stage malaria parasite growth potency – strain 3D7, dose response (AID 2305)

Row | Compound | IC50 [nM]
1 | Clc1ccc2c(NN=Cc3ccccc3)ccnc2c1 | 760
2 | CCn1nc(C(=O)NC2CCOc3ccccc32)c2ccccc2c1=O (stereo unspecified) | 1230
3 | O=C(Nc1ccc(Cl)cc1)c1ccc(CN2CCCN(Cc3cccc(O)c3)CC2)cc1 | 390
4 | O=C(NCCCCN1CCN(c2cccc3c2OCCO3)CC1)c1ccc(NC(=O)c2cc(Cl)cc(Cl)c2)cc1 | 220
5 | CCc1sc(-c2cc(Cl)ccc2OC)nc1C(=O)NCCN1CCCCC1 | 940
6 | Cc1cc(NC(=O)c2cccs2)ccc1OC1CCN(Cc2ccccc2)C1 (stereo unspecified) | 890
7 | Nc1nc(N)c2c(ccc3nn(S(=O)(=O)N4CCCC4)cc32)n1 | 100
8 | CCc1cc2c(Sc3nnc(N)s3)ncnc2s1 | 660
9 | CN(C)c1ccc(-c2csc(C(=O)NC3CCCCN(CCC(C)(C)C)C3)c2)cc1 (stereo unspecified) | 1050
10 | CN1CCN(S(=O)(=O)c2ccc3nccc(Nc4ccc(Oc5ccccc5)cc4)c3c2)CC1 | 820
11 | COc1ccc(CNCCCCCNCc2ccc(Cl)c(Cl)c2)cc1Cl | 750
12 | Cc1cccc2[nH]c(-c3ccc(-c4ccc(CN5CCCCC5)cc4)s3)nc12 | 520
13 | COc1cccc2c1CCN(CCN1CCC(NC(=O)c3ccc(-c4cccc(Cl)c4Cl)cc3)CC1)C2 | 700
14 | O=C(Nc1ccnc(N2C[C@H]3C[C@@H]2CN3Cc2cccc(O)c2)c1)c1ccc(F)cc1 | 1240
15 | CCC1CCCCN1S(=O)(=O)c1ccc(OC)c(N2CCN(C(=O)C(Cl)(Cl)Cl)CC2)c1 (stereo unspecified) | 1120
16 | CC(C)CCNC(=O)C1Cc2c([nH]c3cc(Br)ccc23)C2(CCN(Cc3ccccc3)CC2)N1 (stereo unspecified) | 790
17 | Cc1ccc(NC(=O)Nc2ccc(Cl)cc2)cc1-c1ccc(C(=O)Nc2ccncc2)cc1 | 530
18 | Cc1ccccc1C1CCN(c2ncc(C(=O)Nc3ccccc3)cc2Cl)CC1 | 1010
19 | CCOc1cccc(C(=O)Nc2cccc(CN3CCCN(Cc4ccc(O)cc4)CC3)c2)c1 | 820
20 | O=C(Nc1ccc(-c2nc3ccccc3[nH]2)cc1)c1ccc(S(=O)(=O)N2CCc3ccccc32)cc1 | 740
21 | O=C(Nc1cccc(-c2ccc(-c3nc4ccc(C(F)(F)F)cc4[nH]3)cc2)c1)c1ccncc1 | 340
22 | CN=C(N)c1ccc(NC(=O)c2ccc(C(=O)Nc3ccc(C(N)=NC)cc3)cc2)cc1 | 50
23 | CCCCNC(=O)[C@H](Cc1ccccc1)NC(=O)c1ccc(O)c(-c2ccc(Cl)c(Cl)c2)c1 | 530
24 | Cc1ccc(Nc2nc(NN=Cc3ccc(-c4ccc([N+](=O)[O-])cc4)o3)nc(N3CCOCC3)n2)cc1Cl | 650
25 | CN1CCc2ccc(NC(=O)Nc3ccc(-c4ccccc4)cc3)cc2C1 | 510
26 | CC(Cc1ccc(NC(=O)c2ccc(NCCc3ccccc3)cc2)cc1)NCCc1cccc(Cl)c1 (stereo unspecified) | 850

Row | Compound | IC50 [nM]
27 | COc1ccc(F)cc1-c1ccccc1CNC(=O)CN(C)S(=O)(=O)c1cc(C)cc(Cl)c1C | 660
28 | Cc1cccc(Nc2nccc(Nc3cccc(C(=O)NCCN4CCOCC4)c3)n2)c1 | 1420
29 | O=C(Nc1ccc(OC2CCN(Cc3ccsc3)C2)c(Cl)c1)c1ccsc1 (stereo unspecified) | 1020
30 | O=C(Nc1ccc(OC2CCN(Cc3ccc(F)cc3)CC2)cc1)c1cccs1 | 970
31 | COc1cc(C2CCN(CCCCNC(=O)c3ccc(NC(=O)c4ccc(Cl)c(Cl)c4)cc3)CC2)ccc1OC(C)C | 320
32 | O=C(Nc1cccc(Cl)c1Cl)NC1CCN(Cc2cccc(O)c2)CC1 | 800
33 | CC(C)CNc1nc(N)nc2ccc3c(ccn3CC(C)C)c12 | 650
34 | CCN(Cc1ccccc1)C1CCN(Cc2cc(Br)ccc2O)CC1 | 820
35 | CCCC(=O)Nc1ccc(OCCCN(Cc2cccc(C(F)(F)F)c2)c2ccc(C#N)c(C(F)(F)F)c2)cc1 | 1090
36 | CC(C)[C@H](NC(=O)c1ccc(O)c(-c2ccc(Cl)c(Cl)c2)c1)C(=O)NCCN1CCCCC1 | 340
37 | CCCCCCCn1c(=O)c(C(=O)Nc2c(C)cccc2C)c(O)c2ccccc21 | 910
38 | CC1CCCN(S(=O)(=O)c2ccc(NC(=O)c3cc(-c4ccccc4O)n[nH]3)cc2)C1 (stereo unspecified) | 760
39 | Cc1[nH]c(C)c(-c2ccc(-c3ccc(C(F)(F)F)cc3C(F)(F)F)nc2)c(=O)c1Br | 190
40 | Cc1ccc(Cn2ncc(N3CCC(N)CC3)c(Cl)c2=O)cc1NC(=O)Nc1ccc(-c2ccccc2)cc1 | 920
41 | N#CC(CC(=O)c1ccc(Cl)cc1)c1cccc(F)c1 (stereo unspecified) | 850
42 | COc1ccc(CCN(C)CCCCc2ccc(NC(=O)c3cccc4c(=O)c5cc(F)ccc5sc34)cc2)cc1OC | 900
43 | Cc1ccccc1C1CCN(C2CCC(NC(=O)c3cc(-c4ccc(Cl)cc4)cs3)CC2)CC1 (stereo unspecified) | 160
44 | Cc1cc(CN2CCC(C(=O)Nc3ccc(-c4nc5ccccc5[nH]4)cc3)CC2)oc1C | 1450
45 | CC1(C)N=C(N)N=C(N)N1c1cc(Cl)c(Cl)cc1Cl | 180
46 | O=C(/C=C/c1ccc(Cl)c(Cl)c1)NCCCCCN1CCC(NC(=O)NCCc2ccccc2)CC1 | 720
47 | O=C(/C=C/c1ccc(Cl)c(Cl)c1)NCCCCCN1CCCC(CNC(=O)Nc2ccc(C(F)(F)F)cc2)C1 (stereo unspecified) | 670
48 | CNCC(C)(C)c1nc(-c2ccc(Cl)c(O)c2)c(-c2ccncc2)[nH]1 | 740
49 | Cc1ccnc(Nc2nc(-c3ccccn3)cs2)c1 | 1000
50 | CCc1ccc(NC(=O)c2ccc(CN3CCCN(Cc4cccs4)CC3)cc2)cc1 | 830
51 | Cc1cc(N[C@@H](CC(C)C)C(=O)NC2CCCC2)nc(NCc2ccccc2C)n1 | 1340
52 | Cn1cc(-c2ccnc3[nH]c(-c4cccc(CNC5CCC(O)CC5)c4)cc23)cn1 (stereo unspecified) | 900

Row | Compound | IC50 [nM]
53 | O=c1cc(NCCCCNCc2cccc(Cl)c2)[nH]c2ccccc12 | 740
54 | Cc1ccc2c(NN=Cc3ccc(N(C)C)cc3)cc(C)nc2c1 | 880
55 | O=C(Nc1cccc(-c2ccc(-c3nc4ccc(C(F)(F)F)cc4[nH]3)s2)c1)c1cccnc1 | 360
56 | Cc1cc(Nc2ccccc2)nc(NCCOc2ccccc2)n1 | 730
57 | CCN1CCCC(Nc2ccnc3cc4ccccc4cc23)C1 (stereo unspecified) | 100
58 | CN1CCN(c2ccc(Nc3c(C(N)=O)cnc4cc(-c5ccoc5)ccc34)cc2)CC1 | 810
59 | CCOc1ccc(C(=O)Nc2cc(Cl)ccc2O)cc1Cl | 700
60 | CN1CCCN(c2ccnc3cc4c(cc23)N(C(=O)c2ccc(Cl)c(Cl)c2)CC4)CC1 | 870
61 | O=C(/C=C/c1ccc(Cl)c(Cl)c1)NCCCCCN1CCC(NC(=O)c2ccc([N+](=O)[O-])cc2)CC1 | 670
62 | COc1ccccc1C1CCN(C2CCC(NC(=O)c3cc4cc(C(C)C)ccc4[nH]3)CC2)CC1 (stereo unspecified) | 850
63 | COc1ccc(NC(=O)c2ccc3[nH]c(-c4ccc(Cl)cc4)cc3c2)cc1OCCN(C)C | 810
64 | COc1ccc2nccc([C@@H](O)CN3CCC(NC(=O)/C=C/c4cccc(NC(C)=O)c4)CC3)c2c1 | 960
65 | O=C(CN1CCN(S(=O)(=O)C=Cc2ccccc2)CC1)Nc1cc(C(F)(F)F)ccc1Cl | 780
66 | O=C(COc1ccc(C(=O)c2ccccc2)cc1)Nc1nccs1 | 890
67 | Cc1cc(N2CCCN(C)CC2)nc(Nc2ccc(Cl)cc2)n1 | 800
68 | COc1ccc(NC(=O)c2ccc3cc4ccccc4cc3c2)cc1N1CCN(C)CC1 | 1030
69 | CCCCN(C)CC#Cc1ccc(-c2ccc3[nH]c(C)c(Br)c(=O)c3c2)cn1 | 650
70 | CCN(CC)CC#Cc1ccc2[nH]c(C)c(Cl)c(=O)c2c1 | 700
71 | CCc1cccc2c(C#N)cn(CC(=O)NCCc3ccccc3)c12 | 890
72 | COc1ccc(C2CC(c3cccs3)=NN2C(=O)COc2cccc3c2CCCC3O)cc1OC (stereo unspecified) | 1150
73 | O=C1c2ccccc2C(=O)N1CCOc1c(Br)cc(Br)cc1CNCCCNc1cc(=O)c2ccccc2[nH]1 | 840
74 | Clc1ccc(CNc2nc(NCCc3cnc[nH]3)nc(N3CCCC4CCCCC43)n2)cc1 (stereo unspecified) | 590
75 | C#CCNC(=O)c1ccc(-c2ccnc(Nc3cccc(CCCN4CCOCC4)c3)n2)s1 | 1000
76 | Cc1ccc(C(=O)Nc2cccc(CN3CCCN(Cc4ccc(O)cc4)CC3)c2)cc1 | 1090
77 | Cc1[nH]c(C)c(-c2ccc(Br)cc2)c(=O)c1Cl | 840
78 | CC1(C)N=C(N)N=C(N)N1c1ccc(Oc2ccc(Cl)cc2)c(Cl)c1 | 80

Row | Compound | IC50 [nM]
79 | CN(C)Cc1c(O)ccc2[nH]c(-c3cccc(F)c3)nc12 | 1000
80 | Cn1cc(CN2CCCC(COC(c3ccc(F)cc3)c3ccc(F)cc3)C2)cn1 (stereo unspecified) | 570
81 | COc1cccc(C2(C)CCN(CCCCNC(=O)c3ccc(NC(=O)c4ccc(Cl)cc4)cc3)CC2)c1 | 830
82 | Cc1cccc(C)c1C1CCN(C2CCC(NC(=O)/C=C/c3ccccc3)CC2)CC1 (stereo unspecified) | 580
83 | CC(=O)Nc1ccc(Nc2cc(C)nc(Nc3ccc(NC(C)=O)cc3)n2)cc1 | 890
84 | CCc1ccc(CN(CCCOc2cccc(CC(=O)NCc3cnc[nH]3)c2)Cc2ccc(-n3ccnc3)cc2)cc1 | 980
85 | CCCCC(CC)CN1C(=O)C(c2ccccc2)(c2ccccc2)N=C1N (stereo unspecified) | 190
86 | O=C(Nc1ccc(Cn2ncc(N3CCCNCC3)c(Cl)c2=O)cc1)Nc1ccc(C(F)(F)F)cc1 | 730
87 | COCC(=O)N(Cc1ccccc1-c1cccc(CNCc2ccc3c(c2)OCO3)c1)C1CCN(Cc2ccccc2)CC1 | 840
88 | CC(C)CNCc1ccc(-c2cccc(CN(C(=O)Nc3ccccc3)C3CCN(Cc4ccccc4)CC3)c2)cc1 | 410
89 | CCOc1ccc2c(NN=Cc3cccc(F)c3)cc(C)nc2c1 | 710
90 | Cn1nccc1C(=O)NCCNCc1ccc(-c2ccc(-c3nc4ccc(C(F)(F)F)cc4[nH]3)cc2)cc1 | 150
91 | O=C(O)c1ccc(NC(=O)C2CC(=O)N(Cc3ccc(Cl)cc3)C(=Nc3ccc(Cl)cc3)S2)cc1 (stereo unspecified) | 530
92 | COc1ccc2nc(C)cc(NN=Cc3cccc([N+](=O)[O-])c3)c2c1 | 730
93 | CC(=NNC(=S)NC(C)(C)C)c1ccccn1 | 160
94 | Cc1cccc2[nH]c(-c3ccc(-c4ccc(CNCC5CCCO5)cc4)cc3)nc12 (stereo unspecified) | 680
95 | CC(C)CCN=C(N)c1ccc(OCCCCCOc2ccc(C(N)=NCCC(C)C)cc2)cc1 | 530
96 | CCOc1cc(C(C)C)ccc1N1CCN(CCCCNC(=O)c2ccc(NC(=O)c3ccc(Cl)cc3)cc2)CC1 | 420
97 | COc1ccc(Nc2nc(NC3CCCC3)cc(-c3ccc(OC)cc3)n2)cc1 | 1030
98 | Fc1ccc(CNc2ncc(-c3ccsc3)c(-c3nccs3)n2)cc1 | 70
99 | CCCOC(=O)C1=C(C)NC2=C(C(=O)CC(c3ccc(OC)c(OC)c3)C2)C1c1cccc(O)c1 (stereo unspecified) | 120
100 | NC(N)=Nc1ccc(NC(=O)Nc2ccc(N=C(N)N)cc2)cc1 | 390
101 | COCCNC(=O)C(CNC(=O)c1ccc2c(c1)OCO2)NC(=O)c1ccc(-c2ccccc2)cc1 (stereo unspecified) | 970

From PubChem BioAssay AID2305 (GlaxoSmithKline (GSK), 2010)
